Laboratory results as given in patent US20020042079A1, “METHODS AND AGENTS FOR MEASURING AND CONTROLLING MULTIDRUG RESISTANCE” (priority 1994, published 2002).
Entries after “also recorded” stand apart in the source; their conditions may differ.

Experiments:
[1] = system: MDA-A1 cells; experiment: Acridine orange labeling of acidic compartments; type: cell-based, human; conditions: 10 μM Tamoxifen, estrogen receptor negative cells
Experimental: (§1) Labeling of Cells with Acridine Orange: To examine intracellular acidic compartments, acridine orange (6 μM in medium from a 10 mM stock in water) was added directly to cells in the Lab-Tek chambers and the cells were incubated for 15 minutes. Cells in the presence of acridine orange were then examined utilizing an excitation at 488 nm and dual emission confocal images were simultaneously recorded using both a 530-30 band pass barrier filter (green fluorescence) and a 605 nm long pass barrier filter (red fluorescence). Optical sections of the fluorescent samples were recorded at 0.5 micron intervals with a 60×oil immersion objective.
There is red fluorescence in punctate cytoplasmic organelles and in a perinuclear region.

[2] = system: CHO cells; experiment: Acridine orange labeling of acidic compartments; type: cell-based, Chinese Hamster; conditions: 10 μM tamoxifen, thirty minutes
Experimental: as §1
CHO cells are often used for transfection studies with Pgp since endogenous levels of the protein are non-existent, or too low to be measured [Debenham et al., Mol. Cell Biol., 2:881-889 (1982)].

[3] = system: fresh liver and kidney tissue from mice; experiment: In vitro acidification of organelles from fresh tissue; type: biochemical
Excerpt: The in vitro acidification assay used purified microsomes that had been resuspended in a salt buffer without additional cytosolic or nuclear components.

[4] = system: MCF-7/ADR cells; experiment: Acridine orange labeling of acidic compartments (confocal microscopy); type: cell-based, human; conditions: for red-orange acridine orange fluorescence of cytoplasmic organelles after addition of agent: MCF-7/ADR, 30 minutes, Monensin 5 μM, Bafilomycin A1 500 nM, concanomycin 100 nM, Tamoxifen 5 or 10 μM, verapamil 10 μM, cyclosporin A 10 μM
Experimental: Confocal fluorescence imaging of intracellular pH and acidic compartments: Acridine orange (2 μg/ml media; 4 mg/ml stock in water) was added directly to the chambers and the cells were incubated with the dye at 37° C. for 30 minutes. Cells in the presence of acridine orange were then examined at room temperature with an Insight Bilateral Laser Scanning Confocal Microscope (Meridian Instruments, Okemos, Mich.). […] Optical sections of the fluorescent sample were recorded at 0.5 micron intervals. […] The acetoxymethylester derivative of SNAFL-calcein (15 μg/ml) (Molecular Probes, Eugene, Oreg.) (a radiometric fluorescent probe for pH) was added to both MCF-7 and MCF-7adr cells. The ester linked fluorescent probe enters the cell passively where the esters are hydrolyzed by esterases located in the cytoplasm and intracellular vesicles. The SNAFL-calcein is then ionically trapped within the cytoplasm and vesicular compartments. […] These images were then compared to standard curves that were obtained in the following manner. […] Cells treated with monensin were exposed to the drug (10 μg/ml of media) for 30 minutes at 37° C. prior to labeling with SNAFL-calcein as described above. All cells were examined at room temperature.
The green and red emissions were collected using two photomultiplier tubes. […] Green emission was next passed through a 530 nm/30 nm bandpass filter and collected by the on-axis photomultiplier tube. Red emission was passed through a 610 nm longpass filter and collected by the 90° side photomultiplier tube.
Optical sections of the fluorescent samples were recorded at 0.5 micron intervals with a 60×oil immersion objective.

[5] = system: MCF-7adr cells; experiment: Intravesicular pH with SNAFL-calcein; type: cell-based, human; conditions: monensin 10 μg/ml for 30 minutes
Excerpt: FIG. 6a-6c show Measurements of Intravesicular pH utilizing SNAFL-calcein. […] In contrast, significant pH gradients, including an acidic pericentriolar labeling is observed in MCF7adr cells (FIG. 6b). The intravesicular pH in drug-resistant MCF-7adr cells (white bars) is […] than the vesicular pH of the drug-sensitive parental MCF-7 (black bars) (FIG. 6c). This acidic pH difference is reduced by treatment of MCF-7adr cells with monensin (dark grey). Methods: The acetoxymethylester derivative of SNAFL-calcein (15 μg/ml) (a radiometric fluorescent probe for pH) was added to both MCF-7 and MCF-7adr cells. The ester linked fluorescent probe enters the cell passively where the esters are hydrolyzed by esterases located in the cytoplasm and intracellular vesicles. […] The cells were incubated at 37° C. for 45 minutes and then examined in with the Insight confocal fluorescence. […] To obtain a quantitative relationship between emission ratios and pH, each SNAFL-calcein stained cell line was exposed to a buffer at a known pH containing nigericin/high K^+ (18 μM/150 mM KCl). […] These values were then incorporated into a pH imaging routine that provides a direct read-out of pH values for individual intracellular compartments that are queried on the computer screen. […] (c) To prepare histograms of vesicular pH, 5 vesicles within a confocal section were analyzed/cell (20 cells per cell type). […]

Row | Compound | red acridine orange fluorescence after Tamoxifen [1] | red acridine orange fluorescence after Tamoxifen ([1]; listed as tamoxifen) | red acridine orange fluorescence after Tamoxifen [2] | effect on in vitro acidification compared with MCF-7/ADR microsomes [3] | red-orange acridine orange fluorescence of cytoplasmic organelles after addition of agent [4] | red-orange acridine orange fluorescence of cytoplasmic organelles after addition of agent ([4]; listed as tamoxifen) | acridine orange staining of acidic vesicles after treatment ([4]; MCF-7adr (Examples 2, 3), nigericin 7.5 μM, tamoxifen 50 μM) | red-orange acridine orange fluorescence of cytoplasmic organelles after addition of agent ([4]; listed as monensin) | pH of acidic vesicular compartments after treatment [5]
1 | CC/C(=C(\c1ccccc1)c1ccc(OCCN(C)C)cc1)c1ccccc1 [Tamoxifen] | substantial reduction in the red acridine orange fluorescence | substantial decrease in the red acridine orange fluorescence | substantially reduced the red acridine orange fluorescence; also recorded: loss of red-orange fluorescence from the cytoplasm of the CHO cells | similar | loss of the red-orange cytoplasmic fluorescence | steady decrease of the red acridine orange fluorescence | loss of acridine orange staining within the pericentriolar region |  | 
2 | CC[C@@]1([C@@H]2O[C@@H]([C@H]3O[C@@](O)(CO)[C@H](C)C[C@@H]3C)C[C@@H]2C)CC[C@H]([C@]2(C)CC[C@]3(C[C@H](O)[C@@H](C)[C@@H]([C@@H](C)[C@@H](OC)[C@H](C)C(=O)O)O3)O2)O1 [Monensin] |  |  |  |  | loss of the red-orange fluorescence |  |  | did not exhibit the red spectral shift within the vesicles | alkalization of acidic vesicular compartments to pH values observed for drug sensitive MCF-7 cells
